Test [1] deals with T1, Alpha-1A adrenergic receptor (Homo sapiens, UniProt P35348).
T1 sequence (P35348 whole entry): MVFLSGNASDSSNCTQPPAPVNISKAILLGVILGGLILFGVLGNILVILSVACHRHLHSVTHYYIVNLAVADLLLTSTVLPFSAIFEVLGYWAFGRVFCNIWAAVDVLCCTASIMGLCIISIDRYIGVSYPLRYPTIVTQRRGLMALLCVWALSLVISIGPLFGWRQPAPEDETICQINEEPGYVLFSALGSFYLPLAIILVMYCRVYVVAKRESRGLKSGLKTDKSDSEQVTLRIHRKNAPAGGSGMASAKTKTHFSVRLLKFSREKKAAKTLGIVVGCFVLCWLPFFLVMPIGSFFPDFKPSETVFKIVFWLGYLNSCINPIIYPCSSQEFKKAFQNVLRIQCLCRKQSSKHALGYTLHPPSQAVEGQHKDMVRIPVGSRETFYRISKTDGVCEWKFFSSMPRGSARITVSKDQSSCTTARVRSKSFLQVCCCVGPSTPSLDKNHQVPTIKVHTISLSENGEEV

Test [2] addresses Beta-2 adrenergic receptor (Homo sapiens, UniProt P07550).
The target of another test is Histamine H3 receptor (Homo sapiens, UniProt Q9Y5N1).
Chain of Histamine H3 receptor (Q9Y5N1 whole entry): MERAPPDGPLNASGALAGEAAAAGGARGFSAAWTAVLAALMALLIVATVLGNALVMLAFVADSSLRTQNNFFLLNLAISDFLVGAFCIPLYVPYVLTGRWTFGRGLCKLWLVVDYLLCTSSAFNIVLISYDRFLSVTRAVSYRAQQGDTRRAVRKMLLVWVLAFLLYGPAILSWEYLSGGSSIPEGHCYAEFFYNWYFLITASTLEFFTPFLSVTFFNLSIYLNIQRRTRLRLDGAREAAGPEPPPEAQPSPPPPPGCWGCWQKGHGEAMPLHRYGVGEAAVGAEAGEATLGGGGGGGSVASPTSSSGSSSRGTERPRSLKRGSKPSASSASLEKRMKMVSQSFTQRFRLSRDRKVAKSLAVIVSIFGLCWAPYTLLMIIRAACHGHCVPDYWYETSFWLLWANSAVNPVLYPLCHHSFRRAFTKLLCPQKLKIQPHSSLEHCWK
Test [3] deals with Voltage-dependent L-type calcium channel subunit alpha-1C (Rattus norvegicus, UniProt P22002). The class given is functional.
Chain of Voltage-dependent L-type calcium channel subunit alpha-1C (P22002 whole entry): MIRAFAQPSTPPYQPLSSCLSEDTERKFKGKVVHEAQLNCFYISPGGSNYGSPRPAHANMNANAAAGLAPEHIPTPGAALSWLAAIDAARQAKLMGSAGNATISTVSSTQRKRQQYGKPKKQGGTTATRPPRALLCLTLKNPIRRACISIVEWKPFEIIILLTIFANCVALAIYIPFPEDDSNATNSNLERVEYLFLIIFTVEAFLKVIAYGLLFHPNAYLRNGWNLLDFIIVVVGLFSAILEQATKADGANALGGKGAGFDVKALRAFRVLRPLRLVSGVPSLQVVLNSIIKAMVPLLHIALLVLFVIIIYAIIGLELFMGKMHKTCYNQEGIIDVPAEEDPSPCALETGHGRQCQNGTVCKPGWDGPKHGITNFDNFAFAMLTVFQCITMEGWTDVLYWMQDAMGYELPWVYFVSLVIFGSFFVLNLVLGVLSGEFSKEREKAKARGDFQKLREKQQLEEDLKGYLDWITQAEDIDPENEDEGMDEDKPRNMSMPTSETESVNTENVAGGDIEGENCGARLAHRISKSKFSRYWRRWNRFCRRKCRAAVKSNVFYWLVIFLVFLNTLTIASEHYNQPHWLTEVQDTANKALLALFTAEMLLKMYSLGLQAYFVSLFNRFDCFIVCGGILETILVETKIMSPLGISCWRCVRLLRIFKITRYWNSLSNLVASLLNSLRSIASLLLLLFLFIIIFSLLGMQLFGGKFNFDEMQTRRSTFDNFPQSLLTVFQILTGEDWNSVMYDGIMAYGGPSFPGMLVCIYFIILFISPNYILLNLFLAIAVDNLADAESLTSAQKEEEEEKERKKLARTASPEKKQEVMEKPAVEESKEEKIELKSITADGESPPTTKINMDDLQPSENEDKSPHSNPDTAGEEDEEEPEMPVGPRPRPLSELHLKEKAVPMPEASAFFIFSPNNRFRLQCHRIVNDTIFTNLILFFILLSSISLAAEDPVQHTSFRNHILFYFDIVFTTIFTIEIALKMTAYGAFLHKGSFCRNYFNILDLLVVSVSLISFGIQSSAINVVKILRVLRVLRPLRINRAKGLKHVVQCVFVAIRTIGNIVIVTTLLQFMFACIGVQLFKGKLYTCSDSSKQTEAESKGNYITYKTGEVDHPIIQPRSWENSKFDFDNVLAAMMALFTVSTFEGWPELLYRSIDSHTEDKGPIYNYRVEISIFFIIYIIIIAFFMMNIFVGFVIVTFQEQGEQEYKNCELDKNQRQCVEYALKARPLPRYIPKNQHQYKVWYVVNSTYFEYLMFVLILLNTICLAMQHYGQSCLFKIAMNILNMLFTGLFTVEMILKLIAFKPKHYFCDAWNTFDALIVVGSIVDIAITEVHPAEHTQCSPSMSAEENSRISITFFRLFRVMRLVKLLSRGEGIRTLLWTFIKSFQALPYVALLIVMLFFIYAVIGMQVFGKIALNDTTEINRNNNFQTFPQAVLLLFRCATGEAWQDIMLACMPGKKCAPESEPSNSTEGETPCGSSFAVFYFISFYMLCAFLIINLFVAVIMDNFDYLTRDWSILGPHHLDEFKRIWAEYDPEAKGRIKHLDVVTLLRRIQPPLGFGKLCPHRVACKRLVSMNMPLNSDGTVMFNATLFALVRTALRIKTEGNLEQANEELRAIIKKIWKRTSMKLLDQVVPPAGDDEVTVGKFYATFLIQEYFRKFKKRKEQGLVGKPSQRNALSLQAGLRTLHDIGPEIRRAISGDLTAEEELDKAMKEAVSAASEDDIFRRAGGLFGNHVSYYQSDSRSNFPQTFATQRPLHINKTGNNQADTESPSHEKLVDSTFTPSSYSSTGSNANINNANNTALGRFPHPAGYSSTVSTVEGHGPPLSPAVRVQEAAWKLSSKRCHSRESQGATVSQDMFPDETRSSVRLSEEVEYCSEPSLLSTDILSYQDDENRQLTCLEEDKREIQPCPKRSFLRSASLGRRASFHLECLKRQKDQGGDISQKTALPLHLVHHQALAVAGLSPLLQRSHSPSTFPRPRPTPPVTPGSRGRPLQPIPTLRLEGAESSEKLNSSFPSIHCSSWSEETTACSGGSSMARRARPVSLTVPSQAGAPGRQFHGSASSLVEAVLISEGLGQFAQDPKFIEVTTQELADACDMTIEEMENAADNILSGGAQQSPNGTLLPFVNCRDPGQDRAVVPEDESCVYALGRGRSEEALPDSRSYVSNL
The target in the next test is Cannabinoid receptor 1 (Homo sapiens, UniProt P21554). The test is classed as functional, cell-based.
Chain of Cannabinoid receptor 1 (P21554 whole entry): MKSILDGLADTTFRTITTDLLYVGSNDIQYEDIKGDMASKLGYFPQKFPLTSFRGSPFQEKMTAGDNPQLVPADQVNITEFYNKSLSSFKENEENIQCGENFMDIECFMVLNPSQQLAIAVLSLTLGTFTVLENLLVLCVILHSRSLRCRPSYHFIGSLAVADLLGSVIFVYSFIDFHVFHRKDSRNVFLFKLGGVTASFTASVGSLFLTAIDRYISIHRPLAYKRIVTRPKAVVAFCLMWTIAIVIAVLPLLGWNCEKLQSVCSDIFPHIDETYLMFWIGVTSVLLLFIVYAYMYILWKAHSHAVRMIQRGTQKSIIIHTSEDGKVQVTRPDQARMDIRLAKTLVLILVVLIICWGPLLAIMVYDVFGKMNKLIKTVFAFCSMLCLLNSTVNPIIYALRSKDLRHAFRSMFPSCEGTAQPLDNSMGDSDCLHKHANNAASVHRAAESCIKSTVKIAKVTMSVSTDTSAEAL
The target in test [4] is T2, Neuropeptide Y receptor type 1 (Homo sapiens, UniProt P25929).
T2 sequence (P25929 whole entry): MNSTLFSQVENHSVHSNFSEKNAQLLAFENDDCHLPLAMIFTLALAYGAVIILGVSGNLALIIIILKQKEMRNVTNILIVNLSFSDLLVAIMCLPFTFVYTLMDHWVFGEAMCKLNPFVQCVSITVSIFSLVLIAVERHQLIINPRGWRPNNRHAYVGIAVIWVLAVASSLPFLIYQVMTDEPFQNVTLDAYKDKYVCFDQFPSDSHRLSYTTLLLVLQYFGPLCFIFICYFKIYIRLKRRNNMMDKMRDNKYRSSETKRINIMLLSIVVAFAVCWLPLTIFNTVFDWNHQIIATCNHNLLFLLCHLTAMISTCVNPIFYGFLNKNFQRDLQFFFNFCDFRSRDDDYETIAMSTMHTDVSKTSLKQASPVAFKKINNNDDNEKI
Further: assay procedure not described here.

Chain of Beta-2 adrenergic receptor (P07550 whole entry): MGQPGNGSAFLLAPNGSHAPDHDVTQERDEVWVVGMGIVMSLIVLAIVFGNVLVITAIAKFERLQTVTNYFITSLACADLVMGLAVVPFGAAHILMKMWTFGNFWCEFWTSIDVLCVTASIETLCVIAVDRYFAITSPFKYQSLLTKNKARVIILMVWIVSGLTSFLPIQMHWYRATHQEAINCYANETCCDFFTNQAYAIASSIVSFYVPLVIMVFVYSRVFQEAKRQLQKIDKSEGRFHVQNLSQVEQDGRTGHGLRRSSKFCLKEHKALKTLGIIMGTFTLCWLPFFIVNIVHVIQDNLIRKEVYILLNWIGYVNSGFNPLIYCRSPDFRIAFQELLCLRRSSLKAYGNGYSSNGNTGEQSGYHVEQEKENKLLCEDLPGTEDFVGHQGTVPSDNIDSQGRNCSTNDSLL

For `c1ccc([C@H]2CN3CCSC3=N2)cc1` [LEVAMISOLE], the concentration at half-maximal activity (AC50) in test [1] was greater than 10 µM; in test [2], greater than 30 µM; at Histamine H3 receptor, greater than 30 µM; in test [3], greater than 30 µM; at Cannabinoid receptor 1 it was greater than 30 µM.
As to `CN(C)CCC(c1ccc(Cl)cc1)c1ccccn1` (stereo unspecified) [CHLORPHENIRAMINE], the concentration at half-maximal activity (AC50) in test [1] is 7.01 µM; in test [2], greater than 10 µM; on Histamine H3 receptor, 11 µM; in test [3] it was greater than 10 µM; at Cannabinoid receptor 1 it was greater than 30 µM; in test [4] it was greater than 30 µM.
On to `Cn1nnc2c(C(N)=O)ncn2c1=O` [TEMOZOLOMIDE], for which the half-maximal activity concentration (AC50) in test [1] is greater than 10 µM; in test [2], greater than 10 µM; on Histamine H3 receptor, greater than 30 µM; in test [3], greater than 10 µM; on Cannabinoid receptor 1, greater than 30 µM; in test [4], greater than 30 µM.
For the compound `CCOC(=O)[C@H](CCc1ccccc1)N[C@@H](C)C(=O)N1[C@H](C(=O)O)C[C@@H]2CCC[C@@H]21`, the AC50 in test [1] was greater than 10 µM; in test [2] it was greater than 10 µM; at Histamine H3 receptor, greater than 10 µM; in test [3] it was greater than 10 µM; at Cannabinoid receptor 1, greater than 30 µM; in test [4], greater than 30 µM.
Regarding `CN1C(C(=O)Nc2ccccn2)=C(O)c2sc(Cl)cc2S1(=O)=O` [LORNOXICAM], the half-maximal activity concentration (AC50) in test [1] was greater than 10 µM; in test [2] it was greater than 30 µM; on Histamine H3 receptor, greater than 10 µM; in test [3], greater than 10 µM; at Cannabinoid receptor 1, greater than 30 µM; in test [4], greater than 30 µM.
For the compound `CNC(=O)c1ccccc1Sc1ccc2c(/C=C/c3ccccn3)n[nH]c2c1` [AXITINIB], the AC50 in test [1] was greater than 10 µM; in test [2] it was greater than 10 µM; on Histamine H3 receptor, greater than 30 µM; at Cannabinoid receptor 1 it was greater than 30 µM.
As for `CCCN1C[C@H](CSC)C[C@@H]2c3cccc4[nH]cc(c34)C[C@H]21` [PERGOLIDE], the AC50 in test [1] is 1.78 µM; in test [2], greater than 10 µM; on Histamine H3 receptor, greater than 30 µM; in test [3] it was greater than 10 µM; at Cannabinoid receptor 1 it was greater than 10 µM; in test [4], greater than 30 µM.
In the case of `Cc1ccc(-c2cc(C(F)(F)F)nn2-c2ccc(S(N)(=O)=O)cc2)cc1` [CELECOXIB], the concentration at half-maximal activity (AC50) in test [1] is greater than 10 µM; in test [2], greater than 10 µM; at Histamine H3 receptor it was greater than 10 µM; in test [3], greater than 10 µM; at Cannabinoid receptor 1 it was greater than 30 µM; in test [4] it was greater than 10 µM.
In the case of `O=P1(NCCCl)OCCCN1CCCl` (stereo unspecified) [IFOSFAMIDE], the AC50 (in test [1]; in test [2]; at Histamine H3 receptor; in test [3]; in test [4]) was greater than 30 µM in each case.
In the case of `CCCSc1ccc2nc(NC(=O)OC)[nH]c2c1` [ALBENDAZOLE], the AC50 in test [1] is greater than 10 µM; in test [2], greater than 30 µM; in test [3], greater than 10 µM; in test [4], greater than 10 µM.
As for `CCC(C)n1ncn(-c2ccc(N3CCN(c4ccc(OCC5COC(Cn6cncn6)(c6ccc(Cl)cc6Cl)O5)cc4)CC3)cc2)c1=O` (stereo unspecified) [ITRACONAZOLE], the AC50 in test [1] is greater than 10 µM; in test [2] it was greater than 30 µM; on Histamine H3 receptor, greater than 30 µM; in test [3], greater than 30 µM; at Cannabinoid receptor 1 it was greater than 30 µM; in test [4], greater than 30 µM.
Consider `C[C@@H](O)[C@H]1C(=O)N2C(C(=O)O)=C(S[C@@H]3CN[C@H](C(=O)N(C)C)C3)[C@H](C)[C@H]12` [MEROPENEM], for which the AC50 in test [1] is greater than 10 µM; in test [2], greater than 10 µM; at Histamine H3 receptor, greater than 300 µM; in test [3], greater than 10 µM; on Cannabinoid receptor 1, greater than 300 µM; in test [4] it was greater than 10 µM.
For `C[C@]12CCC(=O)C=C1CC[C@@H]1[C@@H]2[C@@H](O)C[C@@]2(C)[C@H]1CC[C@]2(O)C(=O)CO` [HYDROCORTISONE], the AC50 is greater than 10 µM in test [1]; greater than 10 µM in test [2]; greater than 10 µM at Histamine H3 receptor; greater than 10 µM in test [3]; greater than 30 µM on Cannabinoid receptor 1; greater than 30 µM in test [4].
With `CN(C)/N=N/c1[nH]cnc1C(N)=O` [DACARBAZINE], the concentration at half-maximal activity (AC50) in test [1], in test [2], in test [3] and in test [4] was greater than 10 µM in each case.
As for `Cc1c(C(=O)NN2CCCCC2)nn(-c2ccc(Cl)cc2Cl)c1-c1ccc(Cl)cc1` [RIMONABANT], the concentration at half-maximal activity (AC50) in test [1] was greater than 10 µM; in test [2] it was greater than 10 µM; at Histamine H3 receptor, greater than 30 µM; in test [3], 3.19 µM; in test [4], greater than 30 µM.
For the compound `Clc1ccc2nsnc2c1NC1=NCCN1` [TIZANIDINE], the AC50 in test [1] is 3.9 µM; in test [2] it was greater than 10 µM; on Histamine H3 receptor, greater than 10 µM; in test [3], greater than 10 µM; in test [4] it was greater than 30 µM.
As to `CC1=C(C(=O)O)N2C(=O)[C@@H](NC(=O)[C@H](N)c3ccccc3)[C@H]2SC1` [CEPHALEXIN ANHYDROUS], the concentration at half-maximal activity (AC50) is 5.78 µM in test [1]; greater than 10 µM in test [2]; greater than 10 µM on Histamine H3 receptor; greater than 10 µM in test [3]; greater than 30 µM at Cannabinoid receptor 1; greater than 30 µM in test [4].
Take `Nc1ccn([C@H]2CC[C@@H](CO)O2)c(=O)n1` [ZALCITABINE]: the concentration at half-maximal activity (AC50) in test [1] was greater than 10 µM; in test [2], greater than 10 µM; in test [3] it was greater than 10 µM; on Cannabinoid receptor 1 it was greater than 30 µM; in test [4] it was greater than 10 µM.
`NS(=O)(=O)Cc1noc2ccccc12` [ZONISAMIDE]: the half-maximal activity concentration (AC50) (in test [1]; in test [2]; on Histamine H3 receptor; in test [3]; in test [4]) was greater than 10 µM in each case.
`CN1C(=O)CCS(=O)(=O)C1c1ccc(Cl)cc1` (stereo unspecified) [CHLORMEZANONE]: the AC50 in test [1] was greater than 30 µM; in test [2] it was greater than 10 µM; in test [3], greater than 10 µM; in test [4], greater than 10 µM.
Consider `Clc1ccc(C(c2ccccc2Cl)C(Cl)Cl)cc1` (stereo unspecified) [MITOTANE], for which the AC50 in test [1], in test [2], in test [3] and in test [4] was greater than 10 µM throughout.
As for `COc1ccccc1OCC(O)CN1CCN(CC(=O)Nc2c(C)cccc2C)CC1` (stereo unspecified) [RANOLAZINE], the AC50 in test [1] is 13 µM; in test [2] it was 5.7 µM; at Histamine H3 receptor, greater than 30 µM; in test [3] it was greater than 30 µM; in test [4] it was greater than 30 µM.
Turning to `O=C1Nc2ccc(Cl)cc2[C@@](C#CC2CC2)(C(F)(F)F)O1` [EFAVIRENZ], the AC50 in test [1] is greater than 10 µM; in test [2], greater than 30 µM; on Histamine H3 receptor it was greater than 30 µM; in test [3], 18.8 µM; on Cannabinoid receptor 1 it was greater than 30 µM; in test [4], greater than 30 µM.
